Measurements as given in patent US20060193931A1, “Nutritional or therapeutic composition containing the compound oleuropeine or one of the derivatives thereof” (priority 2003, published 2006).

Key:
Format in all cases: in vivo, rat (Wistar)
[1] = tested on: ovariectomized female rats, suffering from inflammation (OVX inf); assay: Inflammation markers (plasma orosomucoid, spleen weight) in ovariectomized female rats with talc-induced inflammation; details: OVX inf female Wistar rats; diet for 72 days; sacrifice D80; mean ± SEM
Description: (§1) The experiment was conducted on 40 female rats Wistar aged 6 months, amongst which thirty were ovariectomized (OVX) and 10 pseudo-operated (SH). Animals were placed in metabolic cages enabling to separately collect the urines at a controlled temperature of 21±1° C., according to a 12 h-12 h nyctohemeral cycle. Following the surgical operation at Day0, animals were accustomed for seven days to a basic semisynthetic diet (INRA, Jouy-en-Josas, France), supplemented with 2.5% groundnut oil and 2.5% rapeseed oil and humidified to 1 ml water per gram powder. At the end of this adaptation period, the rats were separated in four homogeneous batches according to weight parameters and were fed for 72 days 22 g per day of following diets: • Batch SH/10 pseudo-operated female rats fed control diet (basic diet supplemented with 2.5% groundnut oil and 2.5% rapeseed oil), • Batch OVXinf: 10 ovariectomized female rats fed control diet, • Batch OL: 10 ovariectomized female rats fed control diet supplemented with 0.015% oleuropein. • Batch HO: 10 ovariectomized female rats fed basic diet supplemented with 5% extra-virgin olive oil.
(§2) Oil storage was kept away from light. Feed was prepared once a week and stored at +4° C.
(§3) At D55, that is 3 weeks before the end of the experiment, an inflammation was induced in each batch, except in control batch (SH). […]

[2] = tested on: ovariectomized female rats, suffering from inflammation (OVX inf); assay: Femur bone mineral density in ovariectomized female rats with talc-induced inflammation; details: OVX inf female Wistar rats
Description: as §1, §2
At D55, that is 3 weeks before the end of the experiment, an inflammation was induced in each batch, except in control batch (SH). Four talc subcutaneous injections (3.2 g magnesium silicate (Sigma) suspended in […] physiological saline) were administrated in 4 distinct sites of the animal back.
The day of sacrifice (D80), animals were anesthetized with a chloral intraperitoneal injection (Fluka/8% solution, 0.4 ml/100 g of live weight). Blood samples were collected at abdominal aorta for dosing orosomucoid (inflammation marker, in particular of the acute phase for humans and rats (Fournier and al. 2000), that is produced by lever and other extra-hepatic sites under the control of II1, TNFα and II6 cytokines).
Femurs were collected and removed from adjacent soft tissues, then kept in 80% ethanol for bone density determination.

[3] = tested on: ovariectomized female rats, suffering from inflammation (OVX inf); assay: Body weight and uterine weight in ovariectomized female rats with talc-induced inflammation (senile osteoporosis model); details: OVX inf female Wistar rats
Description: as §1, §2, §3

[4] = diet with 0.015% oleuropein or 5% extra-virgin olive oil for 72 days, sacrifice D80, mean ± SEM
[5] = femur, oleuropein diet for 72 days

Compound: C/C=C1/[C@H](O[C@@H]2O[C@H](CO)[C@@H](O)[C@H](O)[C@H]2O)OC=C(C(=O)OC)[C@H]1CC(=O)OCCc1ccc(O)c(O)c1 [oleuropein]
- spleen weight [1]: 0.201±0.011 g spleen/100 g body weight
- total bone mineral density (femur) [2, 4]: 0.2258±0.0028 g/cm^2
- bone cortical substance density [2, 5]: increase
- bone trabecular substance density [2, 5]: increase
- uterotrophic effect ([3]; diet for 72 days, judged from uterine weight): free from any uterotrophic effect
- uterine weight [3, 4]: 0.034±0.001 g uterus/100 g body weight
